Laboratory results: US20250313563A1, “GLYCOGEN SYNTHASE KINASE 3 INHIBITORS AND USES THEREOF” (The Broad Institute, Inc., priority 2022, published 2025)
pIC50: −log10 of the molar value. Read-outs that look alike come from different tables or passages of the source.

Key:
[1] = biological target: GSK3α (GST-full length GSK3α) (Homo sapiens (Human), UniProt P49840); assay: GSK3α TR-FRET kinase assay; type: biochemical
In short: (§1)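 Compound preincubated 30 min, then 1 nM GST-full-length GSK3α or GSK3b run 100 min at ambient temperature with 200 nM biotinylated, S645-prephosphorylated glycogen synthase 631-650 peptide in Tris pH 7.5, MgCl2, DTT, BSA, 1% DMSO. ATP 4 μM (α) or 2 μM (β), or 1 mM. EDTA-quenched; Tb-anti-pSer641/streptavidin-d2 TR-FRET 665/615 ratio gave IC50.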

[2] = biological target: GSK3b (GST-full length GSK3b) (Homo sapiens (Human), UniProt P49841); assay: GSK3b TR-FRET kinase assay; type: biochemical
In short: as §1

[3] = 1 nM GSK3α, 4 μM ATP, 30 minute preincubation, Table 16, read-out: GSK3-A TR-FRET BIOCHEMICAL (TR-FRET), IC50
[4] = 1 nM GSK3b, 2 μM ATP, 30 minute preincubation, Table 16, read-out: GSK3-B TR-FRET BIOCHEMICAL (TR-FRET), IC50
[5] = 1 nM GSK3α, 4 μM ATP, 30 minute preincubation, Table 16, read-out: GSK3-A TR-FRET BIOCHEMICAL (TR-FRET)
[6] = GSK3-A (TR-FRET 1 mM ATP), GMean, IC50, 1 mM ATP, geometric mean
[7] = 1 nM GSK3b, 2 μM ATP, 30 minute preincubation, Table 16, read-out: GSK3-B TR-FRET BIOCHEMICAL (TR-FRET)
[8] = GSK3-B (TR-FRET 1 mM ATP), GMean, IC50, 1 mM ATP, geometric mean
[9] = 1 nM GSK3α, 4 μM ATP, 30 minute preincubation, read-out: GSK3-A TR-FRET BIOCHEMICAL (TR-FRET), IC50
[10] = 1 nM GSK3b, 2 μM ATP, 30 minute preincubation, read-out: GSK3-B TR-FRET BIOCHEMICAL (TR-FRET), IC50

Chain of GSK3α (GST-full length GSK3α) (P49840 whole entry): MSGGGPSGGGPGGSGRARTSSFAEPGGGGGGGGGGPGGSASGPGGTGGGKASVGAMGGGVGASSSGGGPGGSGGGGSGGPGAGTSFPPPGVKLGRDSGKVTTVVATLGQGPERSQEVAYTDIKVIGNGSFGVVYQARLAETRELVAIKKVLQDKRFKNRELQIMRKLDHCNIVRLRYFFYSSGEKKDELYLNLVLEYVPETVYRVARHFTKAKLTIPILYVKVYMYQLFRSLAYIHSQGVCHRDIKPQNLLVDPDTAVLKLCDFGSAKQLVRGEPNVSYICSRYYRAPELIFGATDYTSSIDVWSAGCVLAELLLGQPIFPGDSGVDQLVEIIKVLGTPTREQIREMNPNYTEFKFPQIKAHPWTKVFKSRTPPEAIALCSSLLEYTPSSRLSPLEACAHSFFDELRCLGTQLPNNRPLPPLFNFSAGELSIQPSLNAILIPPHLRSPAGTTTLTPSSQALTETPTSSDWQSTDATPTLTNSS
Chain of GSK3b (GST-full length GSK3b) (P49841 whole entry): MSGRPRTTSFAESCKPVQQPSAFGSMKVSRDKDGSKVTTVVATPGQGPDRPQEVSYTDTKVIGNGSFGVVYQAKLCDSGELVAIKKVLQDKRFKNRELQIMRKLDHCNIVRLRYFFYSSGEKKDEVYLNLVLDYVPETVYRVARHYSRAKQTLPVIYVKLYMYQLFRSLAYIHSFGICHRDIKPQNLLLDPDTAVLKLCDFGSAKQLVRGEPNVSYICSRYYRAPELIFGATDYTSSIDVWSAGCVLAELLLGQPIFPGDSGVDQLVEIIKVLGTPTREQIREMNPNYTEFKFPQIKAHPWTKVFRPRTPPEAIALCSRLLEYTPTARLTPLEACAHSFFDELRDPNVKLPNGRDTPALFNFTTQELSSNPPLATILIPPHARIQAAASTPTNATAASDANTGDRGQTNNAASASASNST

CCC1(c2cccc(-c3cn(C)nc3C)c2)C2=C(CC(C)(C)C2=O)Nc2n[nH]cc21 (stereo not drawn) [Compound 951702]
pIC50 [1, 3]: ≥ 7.00 | pIC50 ([1]; read-out: GSK3-A (TR-FRET 1 mM ATP), GMean, IC50, 1 mM ATP, geometric mean): 6.00 to 7.00 | pIC50 [2, 4]: 6.00 to 7.00 | pIC50 ([2]; read-out: GSK3-B (TR-FRET 1 mM ATP), GMean, IC50, 1 mM ATP, geometric mean): < 5.30

CC1(C)CC(=O)C2=C(Nc3n[nH]cc3C23CCN(S(=O)(=O)c2cccc(C(F)(F)F)c2)CC3)[C@@H]1F [Compound 951703]
pIC50 [1, 5]: ≥ 7.00 | pIC50 [1, 6]: 6.00 to 7.00 | pIC50 [2, 7]: ≥ 7.00 | pIC50 [2, 8]: 5.30 to 6.00

CC1(C)CC(=O)C2=C(Nc3n[nH]cc3C23CCCCC3)[C@@H]1F [Compound 951705]
pIC50 [1, 5]: ≥ 7.00 | pIC50 [2, 7]: ≥ 7.00

CC[C@]1(c2cccc(-c3cn(C)nc3C3CC3)c2)C2=C(CC(C)(C)NC2=O)Nc2n[nH]cc21 [Compound 951706]
pIC50 [1, 3]: ≥ 7.00 | pIC50 [2, 4]: ≥ 7.00

CC[C@]1(c2cccc(-c3cnn(C4CCCCC4)c3)c2)C2=C(CC(C)(C)NC2=O)Nc2n[nH]cc21 [Compound 951707]
pIC50 [1, 3]: 6.00 to 7.00 | pIC50 [2, 4]: 5.30 to 6.00

Cn1ccc(S(=O)(=O)N2CCC3(CC2)C2=C(Nc4n[nH]cc43)[C@@H](F)C(C)(C)CC2=O)n1 [Compound 951708]
pIC50 [1, 5]: ≥ 7.00 | pIC50 [2, 7]: 6.00 to 7.00

Cn1ccc(S(=O)(=O)N2CCC3(CC2)C2=C(Nc4n[nH]cc43)[C@H](F)C(C)(C)CC2=O)n1 [Compound 951709]
pIC50 [1, 5]: ≥ 7.00 | pIC50 [2, 7]: 6.00 to 7.00

CC[C@@]1(c2cccc(-c3cn(C)nc3C)c2)C2=C(CC(C)(C)C2=O)Nc2n[nH]cc21 [Compound 951710]
pIC50 [1, 3]: < 5.30 | pIC50 [2, 4]: < 5.30

CC1(C)CC(=O)C2=C(Nc3n[nH]cc3C23CCCCC3)[C@H]1F [Compound 951711]
pIC50 [1, 5]: ≥ 7.00 | pIC50 [2, 7]: ≥ 7.00

CC1(C)CC(=O)C2=C(Nc3n[nH]cc3C23CCN(S(=O)(=O)c2cccc(C(F)(F)F)c2)CC3)[C@H]1F [Compound 951713]
pIC50 [1, 5]: ≥ 7.00 | pIC50 [1, 6]: 6.00 to 7.00 | pIC50 [2, 7]: ≥ 7.00 | pIC50 [2, 8]: 5.30 to 6.00

CC(C)S(=O)(=O)N1CCC2(CC1)C1=C(Nc3n[nH]cc32)[C@@H](F)C(C)(C)CC1=O [Compound 951714]
pIC50 [1, 9]: ≥ 7.00 | pIC50 [1, 6]: 6.00 to 7.00 | pIC50 [2, 10]: ≥ 7.00 | pIC50 [2, 8]: 6.00 to 7.00

CC1(C)CC(=O)C2=C(C1)Nc1n[nH]cc1[C@]21CCN(S(=O)(=O)CC2CC2)C1 [Compound 951723]
pIC50 [1, 9]: ≥ 7.00 | pIC50 [1, 6]: ≥ 7.00 | pIC50 [2, 10]: ≥ 7.00 | pIC50 [2, 8]: 6.00 to 7.00

CC1(C)CC(=O)C2=C(C1)Nc1n[nH]cc1[C@@]21CCN(S(=O)(=O)CC2CC2)C1 [Compound 951724]
pIC50 [1, 5]: ≥ 7.00 | pIC50 [2, 7]: ≥ 7.00

Cn1cc(S(=O)(=O)N2CC[C@]3(C2)C2=C(CC(C)(C)CC2=O)Nc2n[nH]cc23)cn1 [Compound 951725]
pIC50 [1, 5]: ≥ 7.00 | pIC50 [1, 6]: 6.00 to 7.00 | pIC50 [2, 7]: ≥ 7.00 | pIC50 [2, 8]: 5.30 to 6.00

Cn1cc(S(=O)(=O)N2CC[C@@]3(C2)C2=C(CC(C)(C)CC2=O)Nc2n[nH]cc23)cn1 [Compound 951726]
pIC50 [1, 5]: ≥ 7.00 | pIC50 [1, 6]: 5.30 to 6.00 | pIC50 [2, 7]: ≥ 7.00 | pIC50 [2, 8]: 5.30 to 6.00

CC[C@]1(c2cccc(N(C)c3ncccn3)c2)C2=C(CC(C)(C)NC2=O)Nc2n[nH]c(C(F)F)c21 [Compound 951736]
pIC50 [1, 3]: ≥ 7.00 | pIC50 [2, 4]: 6.00 to 7.00

CC1(C)CC(=O)C2=C(C1)Nc1n[nH]cc1[C@]21CCN(S(=O)(=O)c2ccccc2)C1 [Compound 951787]
pIC50 [1, 9]: ≥ 7.00 | pIC50 [1, 6]: ≥ 7.00 | pIC50 [2, 10]: ≥ 7.00 | pIC50 [2, 8]: 6.00 to 7.00

CC1(C)CC(=O)C2=C(C1)Nc1n[nH]cc1[C@@]21CCN(S(=O)(=O)c2ccccc2)C1 [Compound 951788]
pIC50 [1, 5]: ≥ 7.00 | pIC50 [1, 6]: 6.00 to 7.00 | pIC50 [2, 7]: ≥ 7.00 | pIC50 [2, 8]: 5.30 to 6.00

COc1cccc(S(=O)(=O)N2CC[C@]3(C2)C2=C(CC(C)(C)CC2=O)Nc2n[nH]cc23)c1 [Compound 951789]
pIC50 [1, 9]: ≥ 7.00 | pIC50 [1, 6]: 6.00 to 7.00 | pIC50 [2, 10]: ≥ 7.00 | pIC50 [2, 8]: 6.00 to 7.00

COc1cccc(S(=O)(=O)N2CC[C@@]3(C2)C2=C(CC(C)(C)CC2=O)Nc2n[nH]cc23)c1 [Compound 951790]
pIC50 [1, 5]: ≥ 7.00 | pIC50 [2, 7]: ≥ 7.00

CCC1(c2cccc(-c3cnn(CC4CCOC4)c3)c2)C2=C(CC(C)(C)NC2=O)Nc2n[nH]cc21 (stereo not drawn) [Compound 951836]
pIC50 [1, 3]: 6.00 to 7.00 | pIC50 [2, 4]: 5.30 to 6.00

CC[C@]1(c2cccc(-c3cnn(-c4ccccc4)c3C(F)(F)F)c2)C2=C(CC(C)(C)NC2=O)Nc2n[nH]cc21 [Compound 951837]
pIC50 [1, 3]: 6.00 to 7.00 | pIC50 [2, 4]: 6.00 to 7.00

CC[C@]1(c2cccc(-c3cnn(Cc4ccc(OC)cc4)c3)c2)C2=C(CC(C)(C)NC2=O)Nc2n[nH]cc21 [Compound 951838]
pIC50 [1, 3]: 6.00 to 7.00 | pIC50 [2, 4]: 5.30 to 6.00
